Measured values from patent publication US20190178896A1, “MARKER FOR THE CLASSIFICATION, DIAGNOSIS AND TREATMENT OF SCOLIOSIS” (Chu Sainte-Justine, priority 2013, published 2019).
Structures can show the parent of a compound that is named as a salt. Where two headings read alike, the source gives them in different places.

What was measured:
Gs and Gq proteins = experiment: Gs and Gq siRNA knockdown effect on impedance signature of GiPCR agonists in osteoblasts; assay type: cell-based, human
Description: Osteoblasts from control subjects and AIS patients of each functional group were transfected with scramble siRNA, Gs siRNA, or Gq siRNA. Efficiency of siRNA in control and AIS groups was verified with qPCR and Western blot analyses 48 hours after transfection, and response to stimulation with GiPCR agonist of cluster I, cluster II, cluster III and cluster IV was evaluated by challenging cells with 10 μM of (FIG. 14A-14D) LPA, (FIG. 14EA-14H) CB65, (FIG. 14I-14L) Somatostatin and (FIG. 14M-14P) Apelin-17, respectively. […] The impedance represented in y-axis as dziec was measured every 2 sec. Data are representative of impedance signatures generated by CellKey™ system in osteoblasts from 12 individuals tested three times in duplicate for each group.;
All Gi1, Gi2, Gi3, Gs and scrambled siRNA were obtained from Ambion (Ambion USA). The sequences used for gene silencing are shown in supplemental Table 3. Osteoblasts from control subjects and AIS patients were transiently transfected in serum-free medium, using Lipofectamine RNAiMAX reagent (Invitrogen) according to the manufacturer's instructions and functional experiments were performed 48 h post transfection. The gene knockdown was evaluated by quantitative real-time PCR (qPCR).
The possibility that the disparity in the shape of impedance among AIS groups in response to GiPCR activation implicates a component of Gs or Gq proteins-dependent response was then […] examined For this purpose, the small interference RNA (siRNA) approach was used to knockdown Gs or Gq proteins prior to stimulate cells.

[1] = system: osteoblasts from control and AIS patients; experiment: cells
Description: The targeted endogenous receptors are shown in parentheses. The impedance represented in y-axis as dziec was measured by the Cellkey™ system every 2 sec. Data are representative of impedance signature in osteoblasts from 12 individuals tested three times in duplicate for each group;
A total of ten compounds were tested and the representative refraction index curves generated by each of these compounds in control and AIS osteoblasts are illustrated in FIGS. 10A-10J).

[2] = system: PBMCs from patients with IS; experiment: Effect of rOPN on cellular response to Gi stimulation (somatostatin) in PBMCs, CDS-based system; assay type: cell-based, human; details: 0.5 μg/mL rOPN 18 h, 10 μM somatostatin
Description: Cells were serum-starved for 18 h in the presence or absence of 0.5 μg/mL rOPN and then stimulated with 10 μM of somatostatin to initiate Gi-mediated cellular response. Data in the graph were generated from maximum-minimum impedance and correspond to the average of response in duplicate;
3. Functional Assay: Day 1: 1. Place PBMCs aliquot from liquid nitrogen in water bath at 37° C. for a minute or until defrosted. 2. Transfer the cell suspension to a 50 mL tube with a sterile pipette. 3. Add 15 mL of Complete media and spin the cells down at 200×g for 5 minutes at room temperature. 4. Remove the supernatant by aspiration. 5. Gently suspend cell pellet in 1 mL of PHA media. 6. Complete the volume to 20 mL with the same media. 7. Cap the tube loosely to allow air to enter. 8. Leave the tube overnight at 37 ° C. in a CO2 incubator to allow quiescent lymphocytes to transform into rapidly-proliferating lymphoblasts.
Day 2: 1. Take the tube out of the incubator, screw the caps completely and spin the cells down at 200×g for 5 min at room temperature. 2. Remove the supernatant by aspiration. 3. Gently suspend cell pellet in 1 mL of complete media. 4. Complete the volume to 20 mL with the same media. 5. Cap the tube loosely to allow air to enter. 6. Leave the tube overnight at 37° C. in a CO2 incubator to expand cell numbers.
Day 3: 1. Take the tube out of the incubator, screw the caps completely and spin the cells down at 200×g for […] at room temperature. 2. Remove the supernatant by aspiration. 3. Wash cells twice with 10 mL of RPMI-1640 (media developed for growing human normal and neoplastic leukocytes (peripheral blood lymphocytes)) by centrifugation at 200×g for […] at room temperature. 4. Gently re-suspend the cell pellet in 600 μL of RPMI-1640. 5. Measure the cell concentration and viability, using an automated cell counter and viability analyzer. 6. Add appropriate volume of RPMI-1640 to adjust to a cell concentration of 1.5×10^5 cell/20 μL. 7. Treat cells with recombinant OPN (rOPN) or vehicle (PBS). 7.1 Transfer 100 μL of cell suspension to two sterile 1.5 ml eppendorf tubes. […]

[3] = Homo sapiens, Osteoblast, read-out: Control EC50 (nM)
[4] = Homo sapiens, Osteoblast, read-out: FG1 EC50 (nM)
[5] = Homo sapiens, Osteoblast, read-out: FG2 EC50 (nM)
[6] = Homo sapiens, Osteoblast, read-out: FG3 EC50 (nM)

| EC50 [1, 3] [nM] | EC50 [1, 4] [nM] | EC50 [1, 5] [nM] | EC50 [1, 6] [nM] | Molecule | Gs coupling (permissive) of agonist/GiPCR (Gs and Gq proteins; FG1) | further results |
| --- | --- | --- | --- | --- | --- | --- |
|  |  |  |  | CSCC[C@H](NC(=O)[C@@H]1CCCN1C(=O)CNC(=O)[C@H](CCCCN)NC(=O)[C@H](Cc1c[nH]cn1)NC(=O)[C@H](CO)NC(=O)[C@H](CC(C)C)NC(=O)[C@H](CCCNC(=N)N)NC(=O)[C@@H]1CCCN1C(=O)[C@H](CCCNC(=N)N)NC(=O)[C@H](CCC(N)=O)NC(=O)[C@H](CCCNC(=N)N)NC(=O)[C@H](CCCNC(=N)N)NC(=O)[C@H](Cc1ccccc1)NC(=O)[C@@H](N)CCCCN)C(=O)N1CCC[C@H]1C(=O)N[C@@H](Cc1ccccc1)C(=O)O [Apelin-17] | Apelin-17/Gs− | Gs coupling (permissive) of agonist/GiPCR (Gs and Gq proteins; FG2): Apelin-17/Gs−; Gs coupling (permissive) of agonist/GiPCR (Gs and Gq proteins; FG3): Apelin-17/Gs− |
| 22.3 ± 1.7 | 22.3 ± 2.3 | 22.5 ± 1.6 | 22.4 ± 1.5 | c1ccc(N2CCN(CCCOc3ccc4c(c3)OCO4)CC2)cc1 [BP554, 1-[3-(3,4-Methylenedioxyphenoxy)propyl]-4-phenyl-piperazine maleate] |  |  |
|  |  |  |  | OPN: recombinant human osteopontin (R & D Systems) |  | reduction of response to Gi stimulation following rOPN treatment ([2]; patient 370): less than 50%; reduction of response to Gi stimulation following rOPN treatment ([2]; patients 345 and 382): more than 50%; OPN effect on the response to Gi stimulation ([2]; patients 353 and 371): increased the response |
|  |  |  |  | Lysophosphatidic acid [LPA] | LPA/Gs+ | EC50 ([1]; read-out: Control EC50, impedance response, osteoblasts from control subjects): 8.52 ± 1.5 nM; EC50 ([1]; read-out: FG1 EC50, impedance response, osteoblasts from AIS patients of group FG1): 8.78 ± 0.6 nM; EC50 ([1]; read-out: FG2 EC50, impedance response, osteoblasts from AIS patients of group FG2): 8.54 ± 1.4 nM; EC50 ([1]; read-out: FG3 EC50, impedance response, osteoblasts from AIS patients of group FG3): 8.59 ± 1.2 nM; Gq coupling (permissive) of agonist/GiPCR (Gs and Gq proteins; FG2): LPA/Gq+; Gq coupling (permissive) of agonist/GiPCR (Gs and Gq proteins; FG3): LPA/Gq+ |
| 16.5 ± 2.3 | 18.5 ± 4.2 | 16.6 ± 1.6 | 17.8 ± 1.3 | Brc1c(NC2=NCCN2)ccc2nccnc12 [UK14304, 5-bromo-N-(4,5-dihydro-1H-imidazol-2-yl)-6-quinoxalinamine] |  |  |
| 33.4 ± 8.4 | 42.3 ± 9.4 | 48.7 ± 6.4 | 45.8 ± 5.3 | COc1ccc2[nH]cc(CCNC(C)=O)c2c1 [Melatonin, melatonin] |  |  |

| Molecule | EC50 [1, 3] [nM] | EC50 [1, 4] [nM] | EC50 [1, 5] [nM] | EC50 [1, 6] [nM] | Gs coupling (permissive) of agonist/GiPCR (Gs and Gq proteins; FG1) | further results |
| --- | --- | --- | --- | --- | --- | --- |
| CCNC(=O)[C@H]1O[C@@H](n2cnc3c(N)ncnc32)[C@H](O)[C@@H]1O [NECA, 1-(6-Amino-9H-purin-9-yl)-1-deoxy-N-ethyl-β-D-ribofuranuronamide] | 20.9 ± 2.2 | 20.9 ± 1.7 | 20.8 ± 1.2 | 22.2 ± 2.2 |  |  |
| O=C(NC1CCCCC1)c1cn(CCN2CCOCC2)c2cc(Cl)ccc2c1=O [CB65, N-Cyclohexyl-7-chloro-1-[2-(4-morpholinyl)ethyl]quinolin-4(1H)-one-3-carboxamide] | 13.9 ± 1.2 | 14 ± 1.2 | 13.7 ± 1.2 | 13.9 ± 1.3 | CB65/Gs+ | Gs coupling (permissive) of agonist/GiPCR (Gs and Gq proteins; FG2): CB65/Gs−; Gs coupling (permissive) of agonist/GiPCR (Gs and Gq proteins; FG3): CB65/Gs− |
